Several values for one entry are separate records, joined by “and”; a condition that tells them apart may be missing. Equal values may be shown once.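 Each compound was tested at five concentrations against cells in 96-well plates for 48 hours. At the GI50, growth is halved. TGI: total growth inhibition.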
Key:
Assay in all cases: NCI-60 cell line screen, 48 h
UO-31 renal = system: UO-31 renal
SW-620 colon = system: SW-620 colon
HCT-15 colon = system: HCT-15 colon
SNB-75 CNS = system: SNB-75 CNS
HT29 colon = system: HT29 colon
CCRF-CEM leukemia = system: CCRF-CEM leukemia
OVCAR-3 ovarian = system: OVCAR-3 ovarian
786-0 renal = system: 786-0 renal
LOX IMVI melanoma = system: LOX IMVI melanoma
HOP-92 NSCLC = system: HOP-92 NSCLC

Row | SMILES | GI50 (UO-31 renal) | TGI (UO-31 renal) | GI50 (SW-620 colon) | TGI (SW-620 colon) | GI50 (HCT-15 colon) [µM] | TGI (HCT-15 colon) | GI50 (SNB-75 CNS) | TGI (SNB-75 CNS) | GI50 (HT29 colon) | TGI (HT29 colon) | GI50 (CCRF-CEM leukemia) [µM] | TGI (CCRF-CEM leukemia) | GI50 (OVCAR-3 ovarian) | TGI (OVCAR-3 ovarian) | GI50 (786-0 renal) | TGI (786-0 renal) | GI50 (LOX IMVI melanoma) | TGI (LOX IMVI melanoma) | GI50 (HOP-92 NSCLC) [µM] | TGI (HOP-92 NSCLC)
1 | COc1ccc2nccc(/C=C/c3ccnc4ccc(OC)cc34)c2c1 | > 100 µM | > 100 µM | 39.8 µM | > 100 µM | > 62.8 | > 100 µM | 27.3 µM | > 80.2 µM | > 69.9 µM | > 100 µM | > 38.9 | > 53.3 µM | > 92 µM | > 100 µM | > 100 µM | > 100 µM | 69.3 µM | > 100 µM | 8.11 | > 56.9 µM
2 | CNCCCn1c2c(c3ccc(F)cc3c1=O)C(=O)c1cc(OC)cnc1-2 | 0.13 µM | 0.809 µM | 0.184 µM | 2.03 µM | 0.25 | 3.86 µM | 0.252 µM | 3.28 µM | 0.145 µM | 0.624 µM | 0.255 | 10.6 µM | 0.263 µM | 1.39 µM | 0.195 µM | 0.658 µM | 0.142 µM | 0.375 µM | 0.371 | 3.15 µM
3 | CC/C=C\C[C@H](O)C/C=C1/C(=O)C=C[C@@H]1C/C=C\CCCC(=O)NC | 1.52 µM | 3.35 µM | 1.28 µM | 4.63 µM | 1.52 | 5.09 µM | 10.8 µM | 22.7 µM | 1.52 µM | 3.25 µM | 1.47 | 8.13 µM | 1.2 µM | 4.11 µM | 1.81 µM | 3.6 µM | 0.317 µM | 1.43 µM | 3.3 | 6.66 µM
4 | Cc1cc(NS(=O)(=O)c2ccc(NC(=O)COC(=O)c3cccc4c(=O)c5ccccc5[nH]c34)cc2)no1 |  | > 100 µM |  | > 100 µM |  | > 100 µM |  | > 100 µM |  | > 100 µM |  | > 100 µM |  | > 100 µM |  | > 100 µM |  | > 100 µM |  | > 100 µM
5 | Clc1ccc(N2CCC(N3CCCC3)CC2)cc1-c1nc2ccccc2[nH]1 | 16.7 µM | 34 µM | 16.8 µM | 36 µM | 18.7 | 38.5 µM | 15.5 µM | 39 µM | 15.1 µM | 35.8 µM | 25.9 | 79.4 µM | 17.8 µM | 40.4 µM | 14.7 µM | 28.7 µM | 18.1 µM | 35.5 µM | 13.4 | 42.8 µM
6 | CCN(CC)CCCNc1[nH]ncc2c(C)c3nc4ccccc4c3cc12 | 3.71 µM | 14.6 µM and 22 µM | 0.319 µM and 0.529 µM | 2.92 µM and 6.98 µM | 6.54 | 21.4 µM and 36.5 µM | 0.64 µM | 1.99 µM and 5.3 µM | 0.362 µM | 1.71 µM and 2.83 µM | 0.132 |  | 0.589 µM | 3.14 µM and 7.11 µM | 0.346 µM | 1.58 µM and 4.57 µM | 0.328 µM | 1.58 µM and 1.18 µM | 0.613 | 3.63 µM and 5.8 µM
7 | O=C1N[C@H]2[C@H](O)[C@H](O)[C@@H](O)[C@H](O)[C@@H]2c2cc3c(c(O)c21)OCO3 | 0.333 µM and 0.522 µM | 2.78 µM and 0.398 µM | 0.239 µM and 0.25 µM |  | 0.462 |  | 0.257 µM and 1.14 µM |  | 0.3 µM and 0.36 µM | 3.84 µM and 0.44 µM | 0.137 | 0.767 µM and 0.485 µM | 0.275 µM and 0.347 µM |  | 0.324 µM and 0.0396 µM |  | 0.147 µM and 0.196 µM |  | 0.333 | 
8 | Brc1ccc(C2SCc3nc4ccccc4n32)cc1 (configuration not stated) |  | 32 µM |  | 29.2 µM |  | 24.3 µM |  | 0.745 µM |  | 20.9 µM |  | > 100 µM |  | 17 µM |  | 26 µM |  | 21 µM |  | 9.66 µM
9 | Oc1ccccc1C=Nc1ccccc1N=Cc1ccccc1O.[Cu+2] | 3 µM | 15.6 µM | 10.6 µM | 24.4 µM | 5.81 | 24.8 µM | 5.15 µM | 19.3 µM | 13.7 µM | 32 µM | 4.16 | > 100 µM | 3.35 µM | 14.4 µM | 10.8 µM | 24.7 µM | 2.85 µM | 13.3 µM | 1.03 | 8.9 µM
10 | CN1CCN(c2ccc(C(=O)Nc3cccc(C#Cc4cccc5[nH]nc(N)c45)c3)cc2C(F)(F)F)CC1 | 0.713 µM | 1.8 µM | 0.608 µM | 1.26 µM | 0.644 | 1.27 µM | 0.624 µM | 1.62 µM | 0.715 µM | 1.81 µM | 1.16 | 4.6 µM | 1.38 µM | 4.73 µM | 2.05 µM | 5.04 µM | 0.59 µM | 1.08 µM | 1.02 | 4.07 µM
11 | O=C(NC(=O)c1cc2cc(Br)cc(Br)c2oc1=O)Oc1ccccc1 |  | > 100 µM |  | > 100 µM |  | > 100 µM |  | 33.6 µM |  | > 100 µM |  | > 100 µM |  | > 100 µM |  | > 100 µM |  | > 100 µM |  | > 100 µM
12 | Cc1ccc(S(=O)(=O)SCc2ccccc2)cc1 |  | > 100 µM |  | 14.7 µM |  | 28.6 µM |  | > 84.2 µM |  | 47.1 µM |  | 7.25 µM |  | 45.5 µM |  | 31.4 µM |  | 37.2 µM |  | 60.9 µM
13 | Cn1c2ccccc2c2nnc(NNCc3ccccn3)nc21 | 0.258 µM | 1.98 µM | 0.613 µM | 16.5 µM | 0.328 | 17.9 µM | 1.16 µM | 14.1 µM | 0.526 µM | 22.9 µM | 0.357 | 12.7 µM | 0.325 µM | 7.12 µM | 0.327 µM | 4.51 µM | 0.349 µM | 4.51 µM | 0.279 | 5.91 µM
14 | COC(=O)/C(=C\c1c(-c2ccccc2)[nH]c2ccccc12)S(C)(=O)=O | 5.49 µM | 28.7 µM | 2.92 µM | 15.9 µM | 2.35 | 12.1 µM | 2.26 µM | 9.61 µM | 3.58 µM | 46.1 µM | 7.62 | > 100 µM | 1.92 µM | 3.97 µM | 7.46 µM | 23.9 µM | 5.07 µM | 17.6 µM | 6.56 | 50.2 µM
